≈ marks a conversion by molar mass, not a printed value. Calls of active or inactive are those of the source. No cut-off for these calls is given here.
How the values were obtained:
Candida albicans = assay: Antimicrobial activity against Candida albicans at 20ug/mL; type: functional, organism-based
Plasmodium falciparum [1] = assay: Antimalarial activity against multidrug-resistant Plasmodium falciparum K1 at 20 ug/mL as reduced [3H]hypoxanthine uptake; type: functional, organism-based
BC1 = assay: Cytotoxicity against human BC1 cells at 20 ug/mL by colorimetric method; type: functional, cell-based
Plasmodium falciparum [2] = assay: Antimalarial activity against multidrug-resistant Plasmodium falciparum K1 by [3H]hypoxanthine uptake; type: functional, organism-based
[3] = test system: Mycobacterium tuberculosis; assay: Antimycobacterial activity against Mycobacterium tuberculosis H37Ra by microplate alamar blue assay; type: functional
[4] = Cytotoxicity against human BC1 cells by colorimetric method; type: functional, cell-based
KB = assay: Cytotoxicity against human KB cells by colorimetric method; type: functional, cell-based

| Structure (SMILES) | Activity (Candida albicans) | Activity (Plasmodium falciparum [1]) | Activity (BC1) | IC50 (Plasmodium falciparum [2]) [µg/mL] | MIC [3] [µg/mL] | IC50 [4] [µg/mL] | IC50 (KB) [µg/mL] |
| --- | --- | --- | --- | --- | --- | --- | --- |
| COc1cc2c(c(OC)c1)C(=O)O[C@H](C)CC(=O)O[C@H](C)Cc1cc(OC)cc(OC)c1C(=O)O[C@H](C)CC(=O)O[C@H](C)Cc1cc(OC)cc(OC)c1C(=O)O[C@H](C)C[C@@H](O)C2 | inactive | inactive | inactive | – | – | – | – |
| C[C@@H]1Cc2cc(O)cc(O)c2C(=O)O[C@H](C)CC(=O)O[C@H](C)Cc2cc(O)cc(O)c2C(=O)O[C@H](C)C[C@@H](O)Cc2cc(O)cc(O)c2C(=O)O[C@H](C)CC(=O)O1 [MENISPOROPSIN A] | inactive | – | – | 4 (≈ 5.01 µM) | 50 (≈ 62.6 µM) | 5 (≈ 6.26 µM) | 6 (≈ 7.51 µM) |
